Assay results reported in patent US6461997B1, “Triazole sulfones having herbicidal activity” (Monsanto Technology LLC, priority 1999, dated 2002).

Key:
AMARE (redroot pigweed) = experiment: Pre-emergence herbicidal activity, warm season; type: in vivo, Amaranthus retroflexus; conditions: GR80 = lowest tested rate (300, 100, 30, 10 g/ha) with 80% or greater inhibition; approx. 14 days after treating; 30/21° C.
In short: (§1)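 GR80 values derive from percent inhibition relative to untreated plants, read roughly 14 days after sowing and pre-emergence soil-surface treatment (compound in 50:50 acetone/water; rates typically 10, 30, 100, 300 g/ha). Warm-season weeds grew at 30/21° C day/night, cool-season ones at 18/13° C; an asterisk marks activity without reaching 80% at the highest rate.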

[1] = tested on: AGSST (creeping bentgrass); experiment: Pre-emergence herbicidal activity, cool season; type: in vivo, Agrostis stolonifera; conditions: GR80 = lowest tested rate (300, 100, 30, 10 g/ha) with 80% or greater inhibition; approx. 14 days after treating; 18/13° C.
In short: as §1

ABUTH (velvetleaf) [2] = experiment: Pre-plant incorporated (PPI) herbicidal activity, warm season; type: in vivo, Abutilon theophrasti; conditions: for Percent inhibition ABUTH: PPI application; for PPI activity (GR80) ABUTH: pre-plant incorporated, GR80 = lowest tested rate with 80% or greater inhibition, approx. 14 days after treating, 30/21° C.
Protocol: (§2) In another set of tests, the pre-plant incorporated (PPI) activity of compounds of this invention was evaluated on the same species as for the pre-emergence tests described above. In the PPI tests the following procedure, designed to simulate PPI application, was used.
(§3) A pre-prepared topsoil mixture (described above) was placed in a pot and compacted to a depth of 1.0 to 1.25 cm from the top of the pot. Seeds of each of several monocotyledonous and dicotyledonous annual plant species were placed on top of the soil. A sufficient quantity of soil to cover the seeds and level fill the pot was weighed into an open container. A known amount of the test compound was dissolved or suspended in an organic solvent and applied by spraying to this cover soil. The cover soil was thoroughly mixed to distribute the test compound throughout the cover soil, and was then applied as a cover layer over the seeds. Untreated soil was used as a cover layer for control pots. After treatment the plants were placed in a greenhouse where they received 0.64 cm of overhead irrigation. All subsequent watering consisted of a light overhead mist and/or subirrigation as needed for germination and growth. Tables 9 and 10 below relate to warm season plant species which were placed after pre-emergence treatment in a greenhouse with a 30/21° C. day/night temperature regime. Tables 11 and 12 below relates to cool season plant species placed after pre-emergence treatment in a greenhouse or growth chamber with an 18/13° C. day/night temperature regime. Only the compounds of Examples 1, 6, 8, 11, 13 and 15-20 were included in PPI tests.
(§4) Approximately 14 days after planting and treating, the plants were observed and herbicidal efficacy recorded as percent inhibition by comparison with untreated plants.

[3] = tested on: GALAP (catchweed bedstraw); experiment: Pre-plant incorporated (PPI) herbicidal activity, cool season; type: in vivo, Galium aparine; conditions: for Percent inhibition GALAP: weed, PPI application; for PPI activity GR80, GALAP: pre-plant incorporated, lowest tested rate with 80% or greater inhibition, about 14 days
Protocol: as §2, §3, §4

[4] = tested on: VERPE (creeping speedwell); experiment: as above; type: in vivo, Veronica persicaria; conditions: for Percent inhibition VERPE: weed, PPI application; for PPI activity GR80, VERPE: pre-plant incorporated, lowest tested rate with 80% or greater inhibition, about 14 days
Protocol: as §2, §3, §4

[5] = tested on: LAMPU (purple deadnettle); experiment: as above; type: in vivo, Lamium purpureum; conditions: for Percent inhibition LAMPU: weed, PPI application; for PPI activity GR80, LAMPU: pre-plant incorporated, lowest tested rate with 80% or greater inhibition, about 14 days
Protocol: as §2, §3, §4

SETVI (green foxtail) = experiment: as above; type: in vivo, Setaria viridis; conditions: for Percent inhibition SETVI: weed, PPI application; for PPI activity GR80, SETVI: pre-plant incorporated, lowest tested rate with 80% or greater inhibition, about 14 days
Protocol: as §2, §3, §4

[6] = tested on: CIRAR (canada thistle (seedling)); experiment: Pre-plant incorporated (PPI) herbicidal activity, warm season; type: in vivo, Cirsium arvense; conditions: GR80 = lowest tested rate with 80% or greater inhibition, approx. 14 days after treating, 30/21° C.
Protocol: as §2, §3, §4

ABUTH (velvetleaf) [7] = experiment: Pre-emergence herbicidal activity, warm season; type: in vivo, Abutilon theophrasti; conditions: GR80 = lowest tested rate (300, 100, 30, 10 g/ha) with 80% or greater inhibition; approx. 14 days after treating; 30/21° C.
In short: as §1

KCHSC (kochia) = experiment: Pre-plant incorporated (PPI) herbicidal activity, cool season; type: in vivo, Kochia scoparia; conditions: pre-plant incorporated; lowest tested rate with 80% or greater inhibition; about 14 days
Protocol: as §2, §3, §4

| SMILES | Pre-emergence activity (GR80) AMARE (AMARE (redroot pigweed)) [g/ha] | Pre-emergence activity (GR80) AGSST [1] [g/ha] | Percent inhibition ABUTH (ABUTH (velvetleaf) [2]; 10 g/ha) [%] | Percent inhibition ABUTH (ABUTH (velvetleaf) [2]; 30 g/ha) [%] | Percent inhibition ABUTH (ABUTH (velvetleaf) [2]; 100 g/ha) [%] | Percent inhibition ABUTH (ABUTH (velvetleaf) [2]; 300 g/ha) [%] | Percent inhibition ABUTH (ABUTH (velvetleaf) [2]; 900 g/ha) [%] | Percent inhibition GALAP ([3]; 10 g/ha) [%] | Percent inhibition GALAP ([3]; 30 g/ha) [%] | Percent inhibition GALAP ([3]; 100 g/ha) [%] | Percent inhibition GALAP ([3]; 300 g/ha) [%] | Percent inhibition GALAP ([3]; 900 g/ha) [%] | Percent inhibition VERPE ([4]; 10 g/ha) [%] | Percent inhibition VERPE ([4]; 100 g/ha) [%] | Percent inhibition VERPE ([4]; 300 g/ha) [%] | Percent inhibition VERPE ([4]; 900 g/ha) [%] | Percent inhibition LAMPU ([5]; 10 g/ha) [%] | Percent inhibition LAMPU ([5]; 300 g/ha) [%] | Percent inhibition LAMPU ([5]; 900 g/ha) [%] | Percent inhibition SETVI (SETVI (green foxtail); 30 g/ha) [%] | other results |
| --- | --- | --- | --- | --- | --- | --- | --- | --- | --- | --- | --- | --- | --- | --- | --- | --- | --- | --- | --- | --- | --- |
| CCN(CC)C(=O)n1cnc(S(=O)(=O)C(F)(F)SCc2ccccc2)n1 [Example 10] | 100 | 100 | 0 | 0 | 0 | 30 | 50 | 0 | 0 | 80 | 50 | 100 | 70 | 100 | 100 | 100 | 0 | 0 | 50 | 0 | Percent inhibition LAMPU ([5]; 30 g/ha): 0%; Percent inhibition SETVI (SETVI (green foxtail); 100 g/ha): 90%; Percent inhibition SETVI (SETVI (green foxtail); 300 g/ha): 100%; Percent inhibition SETVI (SETVI (green foxtail); 900 g/ha): 100% |
| CCN(CC)C(=O)n1cnc(S(=O)(=O)C(F)(F)SCC(=O)OC)n1 [Example 11] | 100 |  | 0 | 0 | 0 | 20 | 20 | 0 | 0 | 0 | 20 | 90 | 90 | 100 | 100 | 100 | 0 | 0 | 0 | 90 | PPI activity (GR80) ABUTH (ABUTH (velvetleaf) [2]): 300 g/ha; PPI activity (GR80) CIRAR [6]: 100 g/ha; PPI activity GR80, GALAP [3]: 300 g/ha; PPI activity GR80, VERPE [4]: [empty]; Percent inhibition VERPE ([4]; 30 g/ha): 90%; PPI activity GR80, LAMPU [5]: 300 g/ha; Percent inhibition LAMPU ([5]; 30 g/ha): 0%; Percent inhibition LAMPU ([5]; 100 g/ha): 0%; PPI activity GR80, SETVI (SETVI (green foxtail)): 300 g/ha; Percent inhibition SETVI (SETVI (green foxtail); 10 g/ha): 80%; Percent inhibition SETVI (SETVI (green foxtail); 100 g/ha): 99%; Percent inhibition SETVI (SETVI (green foxtail); 300 g/ha): 95%; Percent inhibition SETVI (SETVI (green foxtail); 900 g/ha): 100% |
| CCN(CC)C(=O)n1cnc(S(=O)(=O)C(F)(F)SCCOC)n1 [Example 13] |  | 100 | 0 | 0 | 0 | 20 | 85 | 0 | 30 | 0 | 40 | 100 | 75 | 100 | 100 | 100 | 0 | 0 | 90 | 95 | Pre-emergence activity (GR80) ABUTH (ABUTH (velvetleaf) [7]): 300 g/ha; PPI activity (GR80) ABUTH (ABUTH (velvetleaf) [2]): 100 g/ha; PPI activity (GR80) CIRAR [6]: 100 g/ha; PPI activity GR80, GALAP [3]: 300 g/ha; PPI activity GR80, KCHSC (KCHSC (kochia)): * (activity observed, at least at highest rate, but <80% inhibition); PPI activity GR80, VERPE [4]: 100 g/ha; Percent inhibition VERPE ([4]; 30 g/ha): 100%; PPI activity GR80, LAMPU [5]: 30 g/ha; Percent inhibition LAMPU ([5]; 100 g/ha): 0%; PPI activity GR80, SETVI (SETVI (green foxtail)): 100 g/ha; Percent inhibition SETVI (SETVI (green foxtail); 10 g/ha): 30%; Percent inhibition SETVI (SETVI (green foxtail); 100 g/ha): 100%; Percent inhibition SETVI (SETVI (green foxtail); 300 g/ha): 100%; Percent inhibition SETVI (SETVI (green foxtail); 900 g/ha): 100% |
| CCN(CC)C(=O)n1cnc(S(=O)(=O)C(F)(F)C(F)(F)SC)n1 [Example 14] | 300 | 30 |  |  |  |  |  |  |  |  |  |  |  |  |  |  |  |  |  |  |  |
